Test results as given in US6444617B1, “Fused-heterocycle dicarboxylic acid diamide derivatives or salts thereof, herbicide and usage thereof” (Nihon Nohyaku Co., Ltd., priority 1998, dated 2002).

Legend:
Type in all cases: in vivo
[1] = system: barnyard grass (Echinochloa crus-galli Beauv.); experiment: Test Example 1: herbicidal effect on paddy field weeds before emergence; details: Dosage 5 kg/ha
Method in brief: (§1)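 Grading reflects percent control relative to untreated plots, evaluated three weeks post-application. Treatment was a soil application of compound solution, predetermined dose, made to paddy-state pots before weed seeds germinated.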

[2] = system: bulrush (Scirpus juncoides Roxb.); experiment: as above; details: Dosage 5 kg/ha
Method in brief: as §1

[3] = system: barnyard grass (Echinochloa crus-galli Beauv.); experiment: Test Example 2: herbicidal effect on paddy field weeds after emergence; details: Dosage 5 kg/ha; one-leaved stage; 21 days after treatment
Method in brief: (§2)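 Weeds in flooded paddy-soil pots were grown to the one-leaved stage, then the soil was treated with the compound solution at a set dosage.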

[4] = system: bulrush (Scirpus juncoides Roxb.); experiment: as above; details: Dosage 5 kg/ha; one-leaved stage; 21 days after treatment
Method in brief: as §2

[5] = system: monochoria (Monochoria vaginalis Presl); experiment: as above; details: Dosage 5 kg/ha; one-leaved stage; 21 days after treatment
Method in brief: as §2

[6] = system: barnyard grass (Echinochloa crus-galli Beauv.), Ec; experiment: Test Example 3: herbicidal effect on upland weeds before emergence; details: dosage 5 kg/ha
Method in brief: (§3)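 Pre-emergence spray of liquid prep, compound at set concentration; read at 14 d post-treatment; weed-kill rate calculated, effect graded.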

[7] = system: bird's eye speedwell (Veronica persica Poir.), Vp; experiment: as above; details: dosage 5 kg/ha
Method in brief: as §3

[8] = system: cleavers (Galium aparine L.), Ga; experiment: as above; details: dosage 5 kg/ha
Method in brief: as §3

[9] = system: cocklebur (Xanthium strumarium L.), Xs; experiment: as above; details: dosage 5 kg/ha
Method in brief: as §3

[10] = system: forxtail grass (Alopecurus aequalis var. amurensis Ohwi), Am; experiment: as above; details: foxtail grass, dosage 5 kg/ha
Method in brief: as §3

[11] = system: velvetleaf (Abutilon theophtasti L.), At; experiment: as above; details: dosage 5 kg/ha
Method in brief: as §3

soybean plant (So) = experiment: Test Example 3: phytotoxicity to upland crop plants, treatment before emergence; details: dosage 5 kg/ha
Method in brief: (§4)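 Crops treated before emergence with sprayed liquid preparation of compound (prescribed concentration). Day 14: phytotoxicity graded per criterion.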

wheat (Wh) = experiment: as above; details: dosage 5 kg/ha
Method in brief: as §4

[12] = system: barnyard grass (Echinochloa crus-galli Beauv.), Ec; experiment: Test Example 4: herbicidal effect on upland weeds after emergence; details: dosage 5 kg/ha; sprayed after emergence; judged 14 days after treatment
Method in brief: (§5)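 Upland weeds and crop plants (soybean, wheat) are grown from seed in soil until they reach given leaf stages, then treated by spraying with the compound-containing agent; effects are judged two weeks later.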

[13] = system: bird's eye speedwell (Veronica persica Poir.), Vp; experiment: as above; details: dosage 5 kg/ha; sprayed after emergence; judged 14 days after treatment
Method in brief: as §5

[14] = system: cleavers (Galium aparine L.), Ga; experiment: as above; details: dosage 5 kg/ha; sprayed after emergence; judged 14 days after treatment
Method in brief: as §5

[15] = system: cocklebur (Xanthium strumarium L.), Xs; experiment: as above; details: dosage 5 kg/ha; sprayed after emergence; judged 14 days after treatment
Method in brief: as §5

[16] = system: forxtail grass (Alopecurus aequalis var. amurensis Ohwi), Am; experiment: as above; details: dosage 5 kg/ha; sprayed after emergence; judged 14 days after treatment
Method in brief: as §5

[17] = system: velvetleaf (Abutilon theophtasti L.), At; experiment: as above; details: dosage 5 kg/ha; sprayed after emergence; judged 14 days after treatment
Method in brief: as §5

soybean plant = experiment: Test Example 4: phytotoxicity to upland crop plants, treatment after emergence; details: dosage 5 kg/ha, sprayed after emergence, judged 14 days after treatment
Method in brief: as §5

wheat = experiment: as above; details: dosage 5 kg/ha, sprayed after emergence, judged 14 days after treatment
Method in brief: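 Weeds, soybean and wheat were sown in soil-filled vats, covered with soil and grown to set leaf stages before a post-emergence spray of an agent containing the compound at a prescribed concentration. Weed-killing rate and crop phytotoxicity were assessed 14 days after treatment.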

Row | SMILES | Pre-emergence treatment Barnyard grass (herbicidal effect) [1] | Pre-emergence treatment Bulrush (herbicidal effect) [2] | Post-emergence treatment Barnyard grass (herbicidal effect) [3] | Post-emergence treatment Bulrush (herbicidal effect) [4] | Post-emergence treatment Monochoria (herbicidal effect) [5] | Herbicidal effect Ec [6] | Herbicidal effect Vp [7] | Herbicidal effect Ga [8] | Herbicidal effect Xs [9] | Herbicidal effect Am [10] | Herbicidal effect At [11] | Phytotoxicity So (soybean plant (So)) | Phytotoxicity Wh (wheat (Wh)) | Herbicidal effect Ec [12] | Herbicidal effect Vp [13] | Herbicidal effect Ga [14] | Herbicidal effect Xs [15] | Herbicidal effect Am [16] | Herbicidal effect At [17] | Phytotoxicity So (soybean plant) | also measured
1 | CCCNC(=O)c1nc2c(cc1C(=O)Nc1c(CC)ccc(Cl)c1CC)CCCO2 [compound 414] | 5 (Weed-killing rate is 100%.) | 5 (Weed-killing rate is 100%.) | 5 (Weed-killing rate is 100%.) | 5 (Weed-killing rate is 100%.) | 5 (Weed-killing rate is 100%.) | 5 (Weed-killing rate is 100%.) | 5 (Weed-killing rate is 100%.) | 5 (Weed-killing rate is 100%.) | 5 (Weed-killing rate is 100%.) | 5 (Weed-killing rate is 100%.) | 5 (Weed-killing rate is 100%.) | 4 (Crop-killing rate is 90-99%.) | 5 (Crop-killing rate is 100%.) | 5 (Weed-killing rate is 100%.) | 5 (Weed-killing rate is 100%.) | 5 (Weed-killing rate is 100%.) | 5 (Weed-killing rate is 100%.) | 5 (Weed-killing rate is 100%.) | 5 (Weed-killing rate is 100%.) | 4 (Crop-killing rate is 90-99%.) | Phytotoxicity Wh (wheat): 5 (Crop-killing rate is 100%.)
2 | CCc1ccc(Cl)c(CC)c1NC(=O)c1cc2c(nc1C(=O)NC1CCCC1)OCCC2 [compound 423] | 5 (Weed-killing rate is 100%.) | 5 (Weed-killing rate is 100%.) | 5 (Weed-killing rate is 100%.) | 5 (Weed-killing rate is 100%.) | 5 (Weed-killing rate is 100%.) | 5 (Weed-killing rate is 100%.) | 5 (Weed-killing rate is 100%.) | 5 (Weed-killing rate is 100%.) | 5 (Weed-killing rate is 100%.) | 5 (Weed-killing rate is 100%.) | 5 (Weed-killing rate is 100%.) | 4 (Crop-killing rate is 90-99%.) | 5 (Crop-killing rate is 100%.) | 5 (Weed-killing rate is 100%.) | 5 (Weed-killing rate is 100%.) | 5 (Weed-killing rate is 100%.) | 5 (Weed-killing rate is 100%.) | 5 (Weed-killing rate is 100%.) | 5 (Weed-killing rate is 100%.) | 4 (Crop-killing rate is 90-99%.) | Phytotoxicity Wh (wheat): 5 (Crop-killing rate is 100%.)
3 | Cc1c(Cl)cccc1NC(=O)c1cc2c(nc1C(=O)NCC(C)C)OCCC2 [compound 431] | 5 (Weed-killing rate is 100%.) | 5 (Weed-killing rate is 100%.) | 5 (Weed-killing rate is 100%.) | 5 (Weed-killing rate is 100%.) | 5 (Weed-killing rate is 100%.) | 5 (Weed-killing rate is 100%.) | 5 (Weed-killing rate is 100%.) | 4 (Weed-killing rate is 90-99%.) | 4 (Weed-killing rate is 90-99%.) | 4 (Weed-killing rate is 90-99%.) | 5 (Weed-killing rate is 100%.) | 3 (Crop-killing rate is 70-89%.) | 3 (Crop-killing rate is 70-89%.) | 4 (Weed-killing rate is 90-99%.) | 5 (Weed-killing rate is 100%.) | 4 (Weed-killing rate is 90-99%.) | 4 (Weed-killing rate is 90-99%.) | 4 (Weed-killing rate is 90-99%.) | 5 (Weed-killing rate is 100%.) | 3 (Crop-killing rate is 70-89%.) | Phytotoxicity Wh (wheat): 4 (Crop-killing rate is 90-99%.)
4 | CCCNC(=O)c1nc2c(cc1C(=O)Nc1c(CC)ccc(Cl)c1CC)CCOC2 [compound 438] | 5 (Weed-killing rate is 100%.) | 5 (Weed-killing rate is 100%.) | 5 (Weed-killing rate is 100%.) | 5 (Weed-killing rate is 100%.) | 5 (Weed-killing rate is 100%.) | 5 (Weed-killing rate is 100%.) | 5 (Weed-killing rate is 100%.) | 5 (Weed-killing rate is 100%.) | 5 (Weed-killing rate is 100%.) | 5 (Weed-killing rate is 100%.) | 5 (Weed-killing rate is 100%.) | 5 (Crop-killing rate is 100%.) | 5 (Crop-killing rate is 100%.) | 5 (Weed-killing rate is 100%.) | 5 (Weed-killing rate is 100%.) | 5 (Weed-killing rate is 100%.) | 5 (Weed-killing rate is 100%.) | 5 (Weed-killing rate is 100%.) | 5 (Weed-killing rate is 100%.) | 4 (Crop-killing rate is 90-99%.) | Phytotoxicity Wh (wheat): 5 (Crop-killing rate is 100%.)
5 | CCc1ccc(Cl)c(CC)c1NC(=O)c1cc2c(nc1C(=O)NC1CCCC1)COCC2 [compound 447] | 5 (Weed-killing rate is 100%.) | 5 (Weed-killing rate is 100%.) | 5 (Weed-killing rate is 100%.) | 5 (Weed-killing rate is 100%.) | 5 (Weed-killing rate is 100%.) | 5 (Weed-killing rate is 100%.) | 5 (Weed-killing rate is 100%.) | 5 (Weed-killing rate is 100%.) | 5 (Weed-killing rate is 100%.) | 5 (Weed-killing rate is 100%.) | 5 (Weed-killing rate is 100%.) | 4 (Crop-killing rate is 90-99%.) | 5 (Crop-killing rate is 100%.) | 5 (Weed-killing rate is 100%.) | 5 (Weed-killing rate is 100%.) | 5 (Weed-killing rate is 100%.) | 5 (Weed-killing rate is 100%.) | 5 (Weed-killing rate is 100%.) | 5 (Weed-killing rate is 100%.) | 4 (Crop-killing rate is 90-99%.) | Phytotoxicity Wh (wheat): 5 (Crop-killing rate is 100%.)
